Test results: patent US9388147B2 (Receptos, Inc., priority 2009, dated 2016)
Structures can show the parent of a compound that is named as a salt.

Experiments:
peripheral T-cell counts = experiment: Lymphopenia in rats, 3-5 day multiple dose regimen; type: in vivo, rat; conditions: female rats, oral, 24 h after final dose of a 3-5 day multiple dose regimen
Experimental: In rats: Female rats (Simonsen Laboratories, Gilroy Calif.) were housed in an ALAAC accredited facility and the research was approved by the facilities Institutional Animal Care and Use Committee (IACUC). The animals were acclimated to the laboratory for at least 5 days prior to initiation of experiments. Rats (n=3/compound/time-point) were dosed by oral gavage with 1 mg/kg compound formulated in a vehicle consisting of 5% DMS0/5% Tween 20 and 90% 0.1N HCL. Control rats were dosed PO with the vehicle. Whole blood was collected from isoflurane anesthetized rats via the retro-orbital sinus and terminal samples were collected by cardiac puncture into EDTA. Whole blood was incubated with mouse anti-rat CD32 (BD #550271), PE-mouse anti-rat CD45R/B220 (BD #554881), PECy5-mouse anti-rat CD4 (BD #554839), and APC-mouse anti-rat CD8a (eBioscience #17-0084) for 30 minutes on ice. Red blood cells were lysed using BD Pharm Lyse Lysing buffer (#555899) and white blood cells were analyzed with a BD FACSArray. Lymphopenia was expressed as the % of white blood cells that were CD4 or CD8 positive T cells. The overall lymphopenia response over 24 h was estimated by calculating the area under the effect curve (AUEC) using the linear trapezoidal rule.
(§1) The compounds listed in Table 6 were formulated as suspensions in a vehicle consisting of 0.5% carboxymethyl cellulose (Acros Organics) in purified water (pH adjusted to ˜2.2 with hydrochloric acid). The same formulation was used in the rat lymphopenia and toxicology studies described below. The concentration of each compound in suspension was verified to be within ±10% of the target concentration by HPLC-UV.
Prior to the conduct of toxicology studies, the effect of three to five daily doses of each compound on peripheral T-cell counts of female rats was determined (see lymphopenia measurements in rats above). In these lymphopenia studies, blood samples were collected onto EDTA at intervals after the final study dose. The collection times were not identical for each study, however, all studies included a sample collected 24 hours after the final dose. The lymphopenia data was used as a biomarker to select equally pharmacologically active doses for the subsequent toxicology study. […] The high dose in the toxicology study represented a ≧20-fold increment over the low dose.
(§2) The dose producing a 10% increase in lung to body weight ratio was interpolated from a plot of dose versus lung to body weight. The lymphopenia response was measured 24 hours following the final dose of a 3-5 day multiple dose regimen.

S1P4 = target: T1, S1P4 (Homo sapiens, UniProt O95977); experiment: Specificity over other S1P receptors: S1P4-bla TANGO U2OS assay; type: cell-based; conditions: read-out: S1P4 agonist value (EC50)
T1 construct: Tango fusion (own knowledge: protease cleavage site plus GAL4-VP16 transcription factor at the receptor's C-terminus); host or cells: U2OS (Tango -bla)
T1 sequence (O95977 1-384): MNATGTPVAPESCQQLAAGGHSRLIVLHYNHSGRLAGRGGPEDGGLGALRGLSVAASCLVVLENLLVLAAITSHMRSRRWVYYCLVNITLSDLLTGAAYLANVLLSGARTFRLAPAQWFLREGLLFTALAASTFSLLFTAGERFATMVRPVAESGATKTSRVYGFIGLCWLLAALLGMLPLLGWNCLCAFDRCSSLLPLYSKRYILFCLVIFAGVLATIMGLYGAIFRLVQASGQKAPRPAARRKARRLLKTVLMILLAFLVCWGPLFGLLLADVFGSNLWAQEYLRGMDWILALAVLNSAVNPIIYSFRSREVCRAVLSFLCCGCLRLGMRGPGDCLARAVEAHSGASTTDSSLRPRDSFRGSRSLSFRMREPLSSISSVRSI

S1P5 = target: T2, S1P5 (Homo sapiens, UniProt Q9H228); experiment: Specificity over other S1P receptors: S1P5-bla TANGO U2OS assay; type: cell-based; conditions: read-out: S1P5 agonist value (EC50)
T2 construct: Tango fusion (own knowledge: protease cleavage site plus GAL4-VP16 transcription factor at the receptor's C-terminus); host or cells: U2OS (Tango -bla)
T2 sequence (Q9H228 whole entry, the tested form may be a part): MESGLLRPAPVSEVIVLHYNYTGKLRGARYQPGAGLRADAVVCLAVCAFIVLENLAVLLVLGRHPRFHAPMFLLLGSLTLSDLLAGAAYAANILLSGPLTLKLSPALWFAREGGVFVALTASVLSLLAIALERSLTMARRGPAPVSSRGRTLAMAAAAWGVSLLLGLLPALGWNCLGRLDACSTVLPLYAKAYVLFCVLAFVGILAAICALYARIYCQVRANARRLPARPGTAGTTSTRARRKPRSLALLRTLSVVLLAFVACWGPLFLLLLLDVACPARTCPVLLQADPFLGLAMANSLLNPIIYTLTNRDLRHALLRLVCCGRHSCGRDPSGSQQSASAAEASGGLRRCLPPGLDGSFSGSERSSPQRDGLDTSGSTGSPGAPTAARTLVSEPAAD

[1] = Evaluation of therapeutic index in rats: 5 or 14 day toxicology study, lung to body weight ratio; type: in vivo, Sprague-Dawley rat; conditions: for Dose Resulting in 10% increase in lung weight: rats, oral, 5 or 14 consecutive days, interpolated from dose versus lung to body weight; for TI 14 days: therapeutic index: dose producing 10% lung weight increase / dose producing 50% T-cell depletion, 14 day toxicology study in rats
Experimental: All studies were conducted in non-fasted male and female Sprague-Dawely rats (Simonsen Laboratories). Rats were housed in an AAALAC accredited facility and the research was approved by the facilities Institutional Animal Care and Use Committee (IACUC). The animals were acclimated to the laboratory for at least 5 days prior to initiation of experiments.
as §1
In the toxicology studies, three male and three female rats per group were assigned to dosing groups using body weight based randomization. A control group in each study received vehicle. All animals were dosed orally by gavage on 5 or 14-consecutive days at a dose volume of 5 mL/kg/day. The animals were observed daily for any manifestations of adverse effect. Twenty-four hours after the final study dose, the rats were anesthetized with isoflurane and a terminal blood sample was taken by intra-cardiac puncture for hematology and clinical chemistry evaluation (IDEXX Laboratories, Sacramento, Calif.). The lungs with trachea were collected, weighed, and then prepared for histology by perfusion with 10% neutral buffered formalin via the trachea. The internally fixed lungs were then preserved in 10% neutral buffered formalin and submitted for histological examination (IDEXX).
The dose of each compound resulting in a 10% increase in the lung to terminal body weight ratio was estimated for each compound by linear interpolation. The therapeutic index was estimated as the ratio of the dose producing 10% lung weight increase to the dose producing 50% T-Cell depletion.
as §2

CC(C)Oc1ccc(-c2nc(-c3cccc4c3CC[C@H]4N)no2)cc1C#N [Compound 49, (R)-5-(3-(1-amino-2,3-dihydro-1H-inden-4-yl)-1,2,4-oxadiazol-5-yl)-2-isopropoxy-benzonitrile hydrochloride]
Dose Producing 50% lymphopenia (peripheral T-cell counts): 0.10 mg/kg
EC50 (S1P4): 9030 nM
EC50 (S1P5): 20.1 nM
Dose Resulting in 10% increase in lung weight [1]: 0.2 mg/kg
TI 14 days [1]: 2

CC(C)Oc1ccc(-c2nc(-c3cccc4c3CC[C@@H]4N)no2)cc1C#N [Compound 50, (S)-5-(3-(1-amino-2,3-dihydro-1H-inden-4-yl)-1,2,4-oxadiazol-5-yl)-2-isopropoxy-benzonitrile]
Dose Producing 50% lymphopenia (peripheral T-cell counts): 0.10 mg/kg
EC50 (S1P4): 7870 nM
EC50 (S1P5): 44.5 nM
Dose Resulting in 10% increase in lung weight [1]: 2.0 mg/kg
TI 14 days [1]: 20

CC(C)Oc1ccc(-c2nc(-c3cccc4c3CC[C@H]4NCCO)no2)cc1C#N [Compound 85, (R)-5-(3-(1-(2-hydroxyethylamino)-2,3-dihydro-1H-inden-4-yl)-1,2,4-oxadiazol-5-yl)-2-isopropoxybenzonitrile]
Dose Producing 50% lymphopenia (peripheral T-cell counts): 0.15 mg/kg
EC50 (S1P4): 1610 nM
EC50 (S1P5): 15.1 nM
Dose Resulting in 10% increase in lung weight [1]: 2.8 mg/kg
TI 14 days [1]: 14

CC(C)Oc1ccc(-c2nc(-c3cccc4c3CC[C@H]4NCC(=O)N(C)C)no2)cc1C#N [Compound 90, (R)-2-(4-(5-(3-cyano-4-isopropoxyphenyl)-1,2,4-oxadiazol-3-yl)-2,3-dihydro-1H-inden-1-ylamino)-N,N-dimethylacetamide hydrochloride]
Dose Producing 50% lymphopenia (peripheral T-cell counts): 0.40 mg/kg
EC50 (S1P4): > 10000 nM
EC50 (S1P5): 12.9 nM
Dose Resulting in 10% increase in lung weight [1]: 5.5 mg/kg
TI 14 days [1]: 14

CC(C)Oc1ccc(-c2nc(-c3cccc4c3CC[C@@H]4NCC(=O)N(C)C)no2)cc1C#N [Compound 91, (S)-2-(4-(5-(3-cyano-4-isopropoxyphenyl)-1,2,4-oxadiazol-3-yl)-2,3-dihydro-1H-inden-1-ylamino)-N,N-dimethylacetamide]
Dose Producing 50% lymphopenia (peripheral T-cell counts): 0.30 mg/kg
EC50 (S1P4): > 10000 nM
EC50 (S1P5): 15.2 nM
Dose Resulting in 10% increase in lung weight [1]: 0.3 mg/kg
TI 14 days [1]: 1
